Data: ChEMBL document CHEMBL1933004, “Novel (S)-1,2,3,4-tetrahydroisoquinoline-3-carboxylic acids: peroxisome proliferator-activated receptor γ selective agonists with protein-tyrosine phosphatase 1B inhibition” (Bioorg Med Chem, 2012)

Legend:
[1] = Cmax in Sprague-Dawley rat at 10 mg/kg after 0.5 to 8 hrs by HPLC analysis; format: ADME, organism-based; design: dose 10 mg/kg; conditions: in vivo
Rattus norvegicus [2] = test: Effect on RBC count in Sprague-Dawley rat at 50 mg/kg after 28 days (reference value: 862 +/- 21.5 x 10 ' 4/micro L); format: functional
Mus musculus [3] = test: Hypotriglyceridemic activity in diabetic KK-Ay mouse model assessed as decrease in triglyceride level at 30 mg/kg, po qd for 14 days (reference value: 819.9 +/- 135.5 mg/dl); format: functional
Mus musculus [4] = test: Hypoglycemic activity in diabetic KK-Ay mouse model assessed as decrease in glucose level at 10 mg/kg, po qd for 4 days relative to untreated control; format: functional; design: scale not given: the % may be the effect or the level left
Mus musculus [5] = test: Hypotriglyceridemic activity in diabetic KK-Ay mouse model assessed as decrease in triglyceride level at 3 mg/kg, po qd for 14 days (reference value: 819.9 +/- 135.5 mg/dl); format: functional
Mus musculus [6] = test: Hypotriglyceridemic activity in diabetic KK-Ay mouse model assessed as decrease in triglyceride level at 10 mg/kg, po qd for 14 days (reference value: 819.9 +/- 135.5 mg/dl); format: functional
[7] = biological target: T1, Peroxisome proliferator-activated receptor alpha (Homo sapiens) (UniProt Q07869); test: Transactivation of human full length PPARalpha expressed in COS1 cells co-transfected with RXRalpha after 24 hrs by luciferase reporter gene assay relative to WY14643; format: cell-based; conditions: COS-1
T1 sequence (whole entry): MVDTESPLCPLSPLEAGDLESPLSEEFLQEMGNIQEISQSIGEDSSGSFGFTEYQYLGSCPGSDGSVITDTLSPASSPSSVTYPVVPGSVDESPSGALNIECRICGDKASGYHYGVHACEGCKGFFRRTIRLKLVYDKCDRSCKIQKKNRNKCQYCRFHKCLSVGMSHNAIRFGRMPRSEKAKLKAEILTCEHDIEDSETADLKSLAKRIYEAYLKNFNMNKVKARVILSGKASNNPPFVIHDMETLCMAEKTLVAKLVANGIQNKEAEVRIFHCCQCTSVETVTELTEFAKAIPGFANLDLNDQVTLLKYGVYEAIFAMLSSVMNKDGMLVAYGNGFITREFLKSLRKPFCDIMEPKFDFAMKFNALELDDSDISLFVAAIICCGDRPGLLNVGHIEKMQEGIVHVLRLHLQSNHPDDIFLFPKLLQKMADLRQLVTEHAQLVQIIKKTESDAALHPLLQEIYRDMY

Mus musculus [8] = test: Hypoglycemic activity in diabetic KK-Ay mouse model assessed as decrease in glucose level at 10 mg/kg, po qd for 14 days (reference value: 648.4 +/- 77.1 mg/dl); format: functional
Mus musculus [9] = test: Hypoglycemic activity in po dosed diabetic KK-Ay mouse model assessed as decrease in glucose level compound administered for 14 days; format: functional; conditions: for ED50: 336 h
[10] = biological target: T2, Peroxisome proliferator-activated receptor gamma (Homo sapiens) (UniProt P37231); test: Ratio of rosiglitazone EC50 to compound EC50 for human full length PPARgamma
T2 sequence (whole entry): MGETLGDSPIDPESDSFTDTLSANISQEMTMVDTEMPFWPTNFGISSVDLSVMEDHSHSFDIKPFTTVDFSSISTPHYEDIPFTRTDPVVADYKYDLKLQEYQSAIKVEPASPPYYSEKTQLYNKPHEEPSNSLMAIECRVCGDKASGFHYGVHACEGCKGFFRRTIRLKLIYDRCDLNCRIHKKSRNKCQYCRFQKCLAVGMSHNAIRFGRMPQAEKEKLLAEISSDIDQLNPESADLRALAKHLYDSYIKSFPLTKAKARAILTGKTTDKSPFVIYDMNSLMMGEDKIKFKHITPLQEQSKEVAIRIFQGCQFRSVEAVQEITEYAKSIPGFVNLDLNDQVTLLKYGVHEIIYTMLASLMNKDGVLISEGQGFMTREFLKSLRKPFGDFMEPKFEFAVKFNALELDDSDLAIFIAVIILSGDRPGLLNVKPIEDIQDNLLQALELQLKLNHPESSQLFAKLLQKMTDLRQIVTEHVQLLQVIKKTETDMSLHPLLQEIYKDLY

Rattus norvegicus [11] = test: Effect on RBC count in Sprague-Dawley rat at 12.5 mg/kg after 28 days (reference value: 862 +/- 21.5 x 10 ' 4/micro L); format: functional
[12] = biological target: T2, Peroxisome proliferator-activated receptor gamma (Homo sapiens); test: Transactivation of human full length PPARgamma expressed in COS1 cells co-transfected with RXRalpha after 24 hrs by luciferase reporter gene assay relative to farglitazar; format: cell-based; conditions: COS-1
Mus musculus [13] = test: Hypotriglyceridemic activity in po dosed diabetic KK-Ay mouse model assessed as decrease in triglyceride level compound administered for 14 days; format: functional; conditions: for ED50: 336 h
[14] = biological target: T3, Tyrosine-protein phosphatase non-receptor type 1 (Homo sapiens, UniProt P18031); test: Inhibition of PTB1B using pNPP as substrate after 30 mins
T3 sequence (P18031 whole entry): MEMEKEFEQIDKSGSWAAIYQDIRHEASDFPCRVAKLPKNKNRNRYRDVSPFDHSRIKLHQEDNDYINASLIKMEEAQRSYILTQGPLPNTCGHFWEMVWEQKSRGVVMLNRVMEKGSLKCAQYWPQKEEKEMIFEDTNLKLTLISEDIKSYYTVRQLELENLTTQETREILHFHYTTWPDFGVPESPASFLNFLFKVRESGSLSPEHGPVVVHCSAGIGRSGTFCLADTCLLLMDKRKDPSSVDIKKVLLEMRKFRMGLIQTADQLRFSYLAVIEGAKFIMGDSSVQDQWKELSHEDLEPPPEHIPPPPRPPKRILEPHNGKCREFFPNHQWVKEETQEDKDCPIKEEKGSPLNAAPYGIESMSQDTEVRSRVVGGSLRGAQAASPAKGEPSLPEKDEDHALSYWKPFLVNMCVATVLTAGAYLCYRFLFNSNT

Mus musculus [15] = test: Ratio of rosiglitazone ED50 to compound ED50 for po dosed diabetic KK-Ay mouse model; format: functional
Rattus norvegicus [16] = test: Effect on RBC count in Sprague-Dawley rat at 25 mg/kg after 28 days (reference value: 862 +/- 21.5 x 10 ' 4/micro L); format: functional
Rattus norvegicus [17] = test: Effect on hematocrit level in Sprague-Dawley rat at 100 mg/kg after 28 days (reference value: 49.4 +/- 0.4 %); format: functional
Mus musculus [18] = test: Hypoglycemic activity in diabetic KK-Ay mouse model assessed as decrease in glucose level at 30 mg/kg, po qd for 14 days (reference value: 648.4 +/- 77.1 mg/dl); format: functional
Rattus norvegicus [19] = test: Effect on RBC count in Sprague-Dawley rat at 100 mg/kg after 28 days (reference value: 862 +/- 21.5 x 10 ' 4/micro L); format: functional
Rattus norvegicus [20] = test: Effect on hematocrit level in Sprague-Dawley rat at 25 mg/kg after 28 days (reference value: 49.4 +/- 0.4 %); format: functional
[21] = biological target: T4, Peroxisome proliferator-activated receptor gamma (Homo sapiens, UniProt P37231); test: Transactivation of human full length PPARgamma expressed in COS1 cells co-transfected with RXRalpha after 24 hrs by luciferase reporter gene assay; format: cell-based, COS-1
T4 sequence (P37231 whole entry): T2 sequence (whole entry)

Mus musculus [22] = test: Hypoglycemic activity in diabetic KK-Ay mouse model assessed as decrease in glucose level at 3 mg/kg, po qd for 14 days (reference value: 648.4 +/- 77.1 mg/dl); format: functional
Rattus norvegicus [23] = test: Effect on hematocrit level in Sprague-Dawley rat at 12.5 mg/kg after 28 days (reference value: 49.4 +/- 0.4 %); format: functional
Rattus norvegicus [24] = test: Effect on hematocrit level in Sprague-Dawley rat at 50 mg/kg after 28 days (reference value: 49.4 +/- 0.4 %); format: functional
Rattus norvegicus [25] = test: Effect on hematocrit level in Sprague-Dawley rat at 12.5 mg/kg after 28 days (reference value: 47.5 +/- 0.6 %); format: functional
Rattus norvegicus [26] = test: Effect on RBC count in Sprague-Dawley rat at 100 mg/kg after 28 days (reference value: 832 +/- 25.2 x 10 ' 4/micro L); format: functional
Rattus norvegicus [27] = test: Effect on RBC count in Sprague-Dawley rat at 12.5 mg/kg after 28 days (reference value: 832 +/- 25.2 x 10 ' 4/micro L); format: functional
Rattus norvegicus [28] = test: Effect on RBC count in Sprague-Dawley rat at 25 mg/kg after 28 days (reference value: 832 +/- 25.2 x 10 ' 4/micro L); format: functional
Rattus norvegicus [29] = test: Effect on hematocrit level in Sprague-Dawley rat at 50 mg/kg after 28 days (reference value: 47.5 +/- 0.6 %); format: functional
Rattus norvegicus [30] = test: Effect on RBC count in Sprague-Dawley rat at 50 mg/kg after 28 days (reference value: 832 +/- 25.2 x 10 ' 4/micro L); format: functional
Rattus norvegicus [31] = test: Effect on hematocrit level in Sprague-Dawley rat at 25 mg/kg after 28 days (reference value: 47.5 +/- 0.6 %); format: functional
Rattus norvegicus [32] = test: Effect on hematocrit level in Sprague-Dawley rat at 100 mg/kg after 28 days (reference value: 47.5 +/- 0.6 %); format: functional
[33] = biological target: T5, Peroxisome proliferator-activated receptor alpha (Homo sapiens, UniProt Q07869); test: Transactivation of human full length PPARalpha expressed in COS1 cells co-transfected with RXRalpha after 24 hrs by luciferase reporter gene assay; format: cell-based, COS-1
T5 sequence (Q07869 whole entry): T1 sequence (whole entry)

SMILES: C/C=C/C=C/C(=O)N1Cc2cc(OCCc3nc(/C=C/CCC(C)C)oc3C)ccc2C[C@H]1C(=O)O.CC(C)(C)N
- Cmax [1]: 4.5 µM
- Activity (Rattus norvegicus [2]): 835 ×10⁴ /uL
- Activity (Mus musculus [3]): 318.4 mg/dL
- Activity (Mus musculus [4]): 55%
- Activity (Mus musculus [5]): 625.6 mg/dL
- Activity (Mus musculus [6]): 243.8 mg/dL
- Emax [7]: < 50%
- Activity (Mus musculus [8]): 273.7 mg/dL
- Activity (Mus musculus [9]): Dose-dependent effect
- ED50 (Mus musculus [9]): 4.3 mg/kg
- Ratio EC50 [10]: 4
- Activity (Rattus norvegicus [11]): 868 ×10⁴ /uL
- Emax [12]: 98%
- Activity (Mus musculus [13]): Dose-dependent effect
- ED50 (Mus musculus [13]): 6.2 mg/kg
- IC50 [14]: 1180 nM
- Ratio ED50 (Mus musculus [15]): 5
- Activity (Rattus norvegicus [16]): 807 ×10⁴ /uL
- Activity (Rattus norvegicus [17]): 47.8%
- Activity (Mus musculus [18]): 252.5 mg/dL
- Activity (Rattus norvegicus [19]): 817 ×10⁴ /uL
- Activity (Rattus norvegicus [20]): 47.1%
- EC50 [21]: 30 nM
- Activity (Mus musculus [22]): 385.2 mg/dL
- Activity (Rattus norvegicus [23]): 49.7%
- Activity (Rattus norvegicus [24]): 48.2%

SMILES: CN(CCOc1ccc(CC2SC(=O)NC2=O)cc1)c1ccccn1 (stereo not given) [ROSIGLITAZONE]
- Cmax [1]: 34.7 µM
- Activity (Mus musculus [3]): 504.9 mg/dL
- Activity (Mus musculus [4]): 48%
- Activity (Mus musculus [5]): 593.3 mg/dL
- Activity (Mus musculus [6]): 672.3 mg/dL
- Emax [7]: 105%
- Activity (Rattus norvegicus [25]): 46.3%
- Activity (Mus musculus [8]): 392.9 mg/dL
- Activity (Rattus norvegicus [26]): 679 ×10⁴ /uL
- Activity (Mus musculus [9]): Dose-dependent effect
- ED50 (Mus musculus [9]): 23 mg/kg
- Activity (Rattus norvegicus [27]): 791 ×10⁴ /uL
- Activity (Rattus norvegicus [28]): 727 ×10⁴ /uL
- Activity (Rattus norvegicus [29]): 43.1%
- Activity (Rattus norvegicus [30]): 724 ×10⁴ /uL
- Activity (Mus musculus [13]): Dose-dependent effect
- ED50 (Mus musculus [13]): > 30 mg/kg
- IC50 [14]: > 30000 nM
- Activity (Mus musculus [18]): 320.6 mg/dL
- Activity (Mus musculus [22]): 413.5 mg/dL
- Activity (Rattus norvegicus [31]): 43.9%
- Activity (Rattus norvegicus [32]): 42.3%

SMILES: C/C=C/C=C/C(=O)N1Cc2cc(OCCc3nc(/C=C/C(C)C)oc3C)ccc2C[C@H]1C(=O)O.CC(C)(C)N
- Activity (Mus musculus [4]): 38%
- Emax [7]: 62%
- Emax [12]: 104%
- IC50 [14]: 2200 nM
- EC50 [21]: 670 nM
- EC50 [33]: 300 nM

SMILES: C/C=C/C=C/C(=O)N1Cc2cc(OCCc3nc(/C(C)=C/CCC(C)C)oc3C)ccc2C[C@H]1C(=O)O.CC(C)(C)N
- Activity (Mus musculus [4]): 56%
- Emax [7]: < 50%
- Ratio EC50 [10]: 4
- Emax [12]: 119%
- IC50 [14]: 1020 nM
- EC50 [21]: 20 nM
